Measured values from article PMC10138554, “Insights into the Microbicidal, Antibiofilm, Antioxidant and Toxicity Profile of New O-Aryl-Carbamoyl-Oxymino-Fluorene Derivatives” (International Journal of Molecular Sciences, 2023).
≈ marks a conversion by molar mass, not a printed value.

Assays:
E. faecalis ATCC 29212 [1] = assay: Anti-biofilm activity assay, purple violet microtiter method; type: cell-based; details: E. faecalis ATCC 29212 biofilm
Experimental: (§1) The inhibitory activity of the obtained compounds has been assessed on five microbial strains, respectively: E. coli ATCC 25922, P. aeruginosa ATCC 27853, S. aureus ATCC 25923, E. faecalis ATCC 29212 and C. albicans ATCC 90029, in a planktonic and adherent growth state.
(§2) The anti-biofilm activity assay was performed by the purple violet microtiter method, as previously described, allowing us to determine the minimal biofilm inhibitory concentration (MBEC). The same range of concentrations, as in the MIC assay, i.e., from 5 to 0.009 mg/mL has been tested.

S. aureus ATCC 25923 = assay: as above; type: cell-based, Staphylococcus aureus; details: S. aureus ATCC 25923 biofilm
Experimental: as §1, §2

E. faecalis ATCC 29212 [2] = assay: Flow cytometry (FCM) membrane depolarization, DiBAC4(3); type: cell-based; details: for staining index value (SI): E. faecalis ATCC 29212, DiBAC4, 18–24 h
Experimental: (§3) The investigation of potential mechanisms of antimicrobial action by flow cytometry (FCM) was performed on microbial cultures obtained after 18–24 h of microbial cell incubation in the presence of subinhibitory concentrations of the analyzed compounds. Thus, microbial suspensions with a density of approximately 10^6 CFU/mL were prepared in sterile saline phosphate buffer from exponentially growing microbial cultures, obtained on a solid culture medium. Subinhibitory concentrations of the compounds were prepared in Muller–Hinton liquid culture medium and inoculated with an equal amount of microbial suspension and incubated for 18–24 h at 37 °C.
(§4) Microbial suspensions inoculated in a liquid medium were used as growth control. After incubation, the DiBAC4 fluorochrome solution [bis-(1,3-dibutylbarbituric acid) trimethinoxonol] Invitrogen/Life Technologies, Carlsbad, was added (0.5 μg/mL).
(§5) Fluorescence intensity (FI) was measured with an Accuri C6 plus flow cytometer in the FITC fluorescence channel. Growth control was used to locate the microbial cell population for fluorescence measurements. DiBAC4 dye was used to detect changes in the microbial membrane potential. […] A twofold increased fluorescence intensity (median fluorescence intensity = MFI) was considered to correspond to the depolarized microbial cells. For each subinhibitory concentration, a coloring index (CI) was calculated which represents the ratio of fluorescence intensity (FI) of treated versus untreated cells.

P. aeruginosa ATCC 27892 = assay: as above; type: cell-based, Pseudomonas aeruginosa; details: subinhibitory concentration tested 2.5 mg/mL, DiBAC4, 18–24 h
Experimental: as §3, §4, §5

C. albicans ATCC 90029 = assay: as above; type: cell-based, Candida albicans; details: subinhibitory concentration tested 2.5 mg/mL, DiBAC4, 18–24 h
Experimental: as §3, §4, §5

[3] = tested on: Artemia franciscana Kellog nauplii; assay: Toxicity on the Artemia franciscana Kellog crustacean species (lethality of nauplii); type: in vivo; details: tested concentrations 6.2–100 μg/mL (solubility limit), 24 h
Experimental: The oocysts (Great Salt Lake, USA) provided by S.K. Trading were grown on artificial seawater medium (Coral Marine, Grotech), dissolved in distilled water with a few minutes of sonication, at 30 g/L concentration. The test was carried out in a 24-well plate, using three replicates. Because of their low solubility, the compounds 1a–d were suspended in the culture medium using sodium alginate (0.045%) (also used a negative control), the testing being carried out at the solubility limit. The concentrations 100, 50, 25, 12.5 and 6.2 μg/mL used for each substance were obtained by successive dilutions starting from the initial suspension. Between 10 and 15 nauplii per well were collected and placed in contact with the test suspensions (1.5 mL/well). All nauplii, dead or alive, were counted and recorded within 24 h of being placed in contact with the tested suspensions. The non-linear modeling of the concentration-lethality relationship was achieved through a four-parameter logistics model (4PL), implemented in several robust variants for estimating parameters in the R package “dr4pl” [78].

[4] = Scavenger activity towards DPPH free radical; type: biochemical; details: 30 min; for IC50: linear regression over 25–1000 μM, mean ± SD of three, read-out: IC50 by means of DPPH assay
Experimental: The DPPH (Sigma-Aldrich, Darmstadt, Germany) solution of 0.1 mM concentration was obtained by dissolving 0.0039 g of free radical in 100 mL ethanol, in a volumetric flask. For all determinations, the DPPH solution was freshly prepared and kept in the dark. Ethanol has been chosen since tested compounds were dissolved in ethanol: DMSO = 99:1 (v/v) mixture.
The analyzed compounds were dissolved in 25 mL of ethanol: DMSO = 99:1 (v/v) mixture in a final concentration of 1000 μM (stock solution), from which several concentrations of 25 μM, 50 μM, 75 μM, 100 μM, 250 μM and 500 μM were obtained by successive dilutions.
The determination of the antioxidant activity was based on the Ohnishi M et al. method, quoted by Germano M.P. et al..
[…] The samples were kept at rest in the dark for 30 min [79, 81]. Ethanol was used as a blank in order to measure the absorbance at 515 nm (Jasco V-530 spectrophotometer, Jasco, Japan).
The following formula was used to determine DPPH free radical scavenger activity (%): Inhibition %=Acontrol−Asample/Acontrol×100 where, A = absorbance of the 0.1 mM DPPH solution in the absence (control)/presence (sample) of tested compounds after 30 min.
For both the above-mentioned methods, the antioxidant activity was expressed as IC50 values (μM) which represent the concentration of each compound for which the scavenging activity of free radicals is 50%. […]

[5] = In vitro cytotoxicity assay, IncuCyte S3 live-cell analysis; type: cell-based; details: human, 72-h period
Experimental: The cytotoxicity of the investigated compounds was tested using the IncuCyte Basic Analysiskit, allowing to calculate the IC50, against three tumoral cell lines, i.e., HeLa (cervical cancer cells), HT29 (colon adenocarcinoma) and MG63 (osteosarcoma). The selected metric of the concentration-response module was set on phase and confluence (%).
In our experiments, we used colorectal adenocarcinoma HT29 (ATCC HTB-38), cervical adenocarcinoma cells HeLa (ATCC CRM-CCL2), and osteosarcoma MG63 (ATCC CRL-1427). The cells were maintained in Dulbeco’s Modified Medium (DMEM): F12 (Thermo Fisher Scientific, Waltham, MA, USA) supplemented with 10% fetal bovine serum (FBS, Thermo Fisher Scientific, Waltham, MA, USA). For the in vitro evaluation of their cytotoxicity, the new derivatives were solubilized in DMSO at a concentration of 10 mg/mL and filtered with 0.22 µm Millex-GV Filter (Merck, Darmstadt, Germany). For cytotoxicity kinetics, the IncuCyte® S3 Live-Cell Analysis System (Sartorius, AG, Goettingen, Germany) was used. Briefly, 2 × 10^4 cells seeded in 96 well plates were treated with the new derivatives in a concentration ranging between 500 μg/mL and 3.9 μg/mL. The plates were placed in the IncuCyte® S3 Live-Cell Analysis System, and five images per well were taken every six h over a 72-h period and then processed, according to kit recommendations.

[6] = subinhibitory concentration tested 2.5 mg/mL
[7] = HT29 cells (colorectal adenocarcinoma), HT29, phase confluence (%)
[8] = HeLa cells (cervical adenocarcinoma), phase confluence (%)
[9] = MG63 cells (osteosarcoma), MG63, phase confluence (%)
[10] = subinhibitory concentration tested 1.25 mg/mL

SMILES | minimum biofilm inhibitory concentration (MBIC) (E. faecalis ATCC 29212 [1]) [mg/mL] | minimum biofilm inhibitory concentration (MBIC) (S. aureus ATCC 25923) [mg/mL] | staining index value (SI) (E. faecalis ATCC 29212 [2]; [6]) | staining index value (SI) (P. aeruginosa ATCC 27892) | staining index value (SI) (C. albicans ATCC 90029) | toxicity (in words) [3] | DPPH free radical scavenger capacity ([4]; at 25 μM) [%] | DPPH free radical scavenger capacity ([4]; at 1000 μM) [%] | IC50 [4] [mM] | IC50 at 72 h [5, 7] [µg/mL] | IC50 at 72 h [5, 8] [µg/mL] | IC50 at 72 h [5, 9] [µg/mL] | changes in the membrane potential (E. faecalis ATCC 29212 [2]; E. faecalis ATCC 29212, subinhibitory concentration) | staining index value (SI) (E. faecalis ATCC 29212 [2]; [10])
O=C(Nc1ccccc1)ON=C1c2ccccc2-c2ccccc21 [Compound 1a, 9-(phenylcarbamoyloxymino)fluoren] | 1.25 | 5 | 2.21 | 6.68 | 4.94 | not toxic | 12.66 | 19.81 | 5.7352 ± 8.28e-05 | 11 ± 0.75 (≈ 35 µM) | 7.52 ± 1.39 (≈ 23.9 µM) | 31.5 (≈ 100 µM) | – | –
Cc1cccc(NC(=O)ON=C2c3ccccc3-c3ccccc32)c1 [Compound 1b, 9-((3-methyl-phenyl)carbamoyloximino)fluoren] | 1.25 | 2.5 | 3.99 | 6.5 | 2.82 | not toxic | – | 16.29 | 12.263 ± 5.74e-05 | 6.33 ± 3.02 (≈ 19.3 µM) | 8.5 ± 2.26 (≈ 25.9 µM) | 22 ± 2.48 (≈ 67 µM) | – | –
O=C(Nc1cccc(Cl)c1)ON=C1c2ccccc2-c2ccccc21 [Compound 1c, 9-((3-chloro-phenyl)carbamoyloxymino)fluoren] | 0.312 | 5 | – | 2.38 | – | not toxic | – | 24.64 | 5.208 ± 0.000124 | 10.8 ± 1.36 (≈ 31 µM) | 8.9 ± 2.56 (≈ 25.5 µM) | 22.8 ± 0.78 (≈ 65.4 µM) | did not cause changes | 0.32
O=C(Nc1ccc(Cl)c(Cl)c1)ON=C1c2ccccc2-c2ccccc21 [Compound 1d, 9-((3,4-dichloro-phenyl)carbamoyloxymino)fluoren] | 1.25 | 0.019 | – | 20.45 | 20.21 | moderate toxicity | – | – | – | 8.17 ± 2.98 (≈ 21.3 µM) | 7.59 ± 3.64 (≈ 19.8 µM) | 26.3 ± 0.92 (≈ 68.6 µM) | – | 44.54
